Source: patent publication US20030235873A1, “Process for detecting enzyme activity in an immunoassay” (priority 2000, published 2003)
pIC50, pKd: −log10 of the molar value. *1 amine or outer side, *2 acyl side, *3 side chain or, on linkers, in order; H or OH if unused. Where a SMILES comes first, the peptide text is derived from it. Bridges are numbered along the chain shown (N, C = ends). Where no end group is shown, it is not given here. [ ]: non-standard residue; d: D form. Adda = CO[C@@H](Cc1ccccc1)[C@@H](C)/C=C(C)/C=C/[C@H](N[*:1])[C@H](C)C(=O)[*:2]; dAsp(3S-Me) = C[C@H](C(=O)[*:3])[C@@H](N[*:1])C(=O)[*:2]; d(γGlu) = O=C(O)[C@@H](CCC(=O)[*:2])N[*:1]; pY = N[C@@H](Cc1ccc(OP(=O)(O)O)cc1)C(=O)O; pT = C[C@@H](OP(=O)(O)O)[C@H](N)C(=O)O; NMeDha = C=C(NC)C(=O)O

What was measured:
[1] = tested on: polyclonal anti active JNK antibody #9251 (New England Biolabs NEB #9251); test: Fluorescence polarization binding of TAMRA-labelled JNK active-site peptides to anti-active JNK antibody; details: peptide at 5 nM
Method: This polyclonal antibody detects all three isoforms of the SAPK1/JNK proteins only when they are activated by dual phosphorylation at threonine183/tyrosinel85. Binding of poly-clonal anti active JNK antibody #9251 (concentration: 0.02 mg/ml, equiv. 130 nM) to TAMRA-labelled P1*° peptide (at 5 nM) was measured at different antibody concentrations by fluorescence polarization. As a control, no binding of the antibody to the monophosphorylated TAMRA-P1° peptide (at 5 nM) is detected.
The results of this experiment are illustrated in FIG. 4. […] The polarization values dramatically increase when using the double-phosphorylated TAMRA-P1*° peptide in contrast to mono-phosphorylated labelled TAMRA-P1° peptide (sequences see below).

[2] = tested on: ac(K9)-p(S10)-specific antibody from New England Biolabs (#9711); test: Binding of TAMRA-labelled histone H3 peptides to ac(K9)-p(S10)-specific antibody; details: FIG. 15 and 16
Text: (§1) The histone deacetylase assay uses fluorescently-labelled peptides (TAMRA dye as a label) derived from histone H3 sequence. In the assay two different polyclonal antibodies are used which bind specifically to acetylated lysine redidues (ac(K) at positions ac(K9) or […]). Acetylation of a single lysine results in a relative small change of the molecular structure of the aminoacid side chain. The resulting change in the binding affinity to acetyl-specific antibodies is in general difficult to detect in a homogeneous binding assay. According to the invention, therefore an additional modification (phosphorylation of serine at position (S10)) was included within the H3-peptide sequence to enhance the affinity of the peptides to the applied antibodies. From the results of three independing binding experiments (FIGS. 15-17) it is evident that dual-modified peptide conjugates confer a higher affinity for the applied antibodies when compared to mono-modified peptide conjugates. This characteristic is of great value to measure the different acetylation states of lysine residues using acetyl-specific antibodies. In principle, the described binding assay can be applied both for the detection of acetyltransferase or deacetylase activity, in particular histone acetyltransferase/deacetylase.

[3] = tested on: p(S10)-ac(K14)-specific antibody from Upstate Biotech (#07-081); test: Binding of TAMRA-labelled histone H3 peptides to p(S10)-ac(K14)-specific antibody; details: FIG. 17
Text: as §1

PP2A phosphatase = target: T1, PP2A phosphatase (Homo sapiens, UniProt P67775); test: Direct phosphatase assay: inhibition of PP2A-dependent dephosphorylation of TAMRA-P1°* peptide (fluorescence polarization read-out); format: biochemical
T1 construct: purchased Upstate Biotech 14-111 (lot no. 20574)
T1 sequence (P30153 2-589): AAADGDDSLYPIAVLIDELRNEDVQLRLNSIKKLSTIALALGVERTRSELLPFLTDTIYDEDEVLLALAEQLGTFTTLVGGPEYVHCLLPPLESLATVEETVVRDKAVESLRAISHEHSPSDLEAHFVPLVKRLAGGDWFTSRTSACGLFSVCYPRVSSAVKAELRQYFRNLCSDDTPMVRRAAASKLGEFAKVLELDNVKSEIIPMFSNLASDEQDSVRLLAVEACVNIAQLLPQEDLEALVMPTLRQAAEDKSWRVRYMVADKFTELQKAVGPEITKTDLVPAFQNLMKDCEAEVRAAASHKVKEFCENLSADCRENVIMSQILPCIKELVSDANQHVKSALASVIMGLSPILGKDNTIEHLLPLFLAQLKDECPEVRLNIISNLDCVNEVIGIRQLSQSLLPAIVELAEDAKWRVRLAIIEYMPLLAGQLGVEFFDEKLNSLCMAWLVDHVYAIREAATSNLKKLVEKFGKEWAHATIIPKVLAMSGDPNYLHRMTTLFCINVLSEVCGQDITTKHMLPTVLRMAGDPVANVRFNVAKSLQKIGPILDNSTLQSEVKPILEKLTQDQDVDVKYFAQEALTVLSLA
T1 sequence (P67775 whole entry): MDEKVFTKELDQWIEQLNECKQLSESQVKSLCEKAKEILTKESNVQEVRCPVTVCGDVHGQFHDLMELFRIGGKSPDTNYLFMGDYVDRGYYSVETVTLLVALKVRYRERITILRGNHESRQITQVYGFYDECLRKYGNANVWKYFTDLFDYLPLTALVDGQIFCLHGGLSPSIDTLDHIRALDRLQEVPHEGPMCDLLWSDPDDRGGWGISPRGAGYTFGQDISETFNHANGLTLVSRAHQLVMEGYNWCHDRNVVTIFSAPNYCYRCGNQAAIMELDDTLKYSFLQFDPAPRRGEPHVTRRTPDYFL

[4] = tested on: antibody NEB #9251 (polyclonal anti-active JNK antibody); test: Fluorescence correlation spectroscopy competition of the NEB #9251 antibody-P1°*-TAMRA complex with non-fluorescent peptides; format: binding; details: antibody 1:20 diluted, TAMRA-labelled peptide P1*° 5 nM

5-TAMRA-AEEA-Lys-Phe-Met-Met-Thr-Pro-pTyr-Val-Val-Thr-Arg-NH2 (chain 1 KFMMTP; chain 2 YVVTR; not fully specified; 5-TAMRA-AEEA, phospho residue, C-terminal amide; printed: Lys-Phe-Met-Met-Thr-Pro-; printed: Tyr-Val-Val-Thr-Arg-) [TAMRA-P1°]
Binding of the antibody to the peptide ([1]; control): no binding

TAMRA-A-R-ac(K9)-S-T-T-G-K-A [peptide #12]
Binding of the ac(K9)-p(S10)-specific antibody to the peptide [2]: only low binding

TAMRA-A-R-K-p(S10)-T-T-G-K-A [peptide #13]
Binding of the ac(K9)-p(S10)-specific antibody to the peptide [2]: only low binding

TAMRA-A-R-ac(K9)-p(S10)-T-T-G-K-A-P [peptide #10]
Binding of the ac(K9)-p(S10)-specific antibody to the peptide [2]: binding
Binding of the p(S10)-ac(K14)-specific antibody to the peptide [3]: only low binding

C=C1[C@@H](O)[C@@H]2O[C@]3(CC[C@H](/C=C/[C@@H](C)[C@@H]4CC(C)=C[C@@]5(O[C@H](C[C@@](C)(O)C(=O)O)CC[C@H]5O)O4)O3)CC[C@H]2O[C@@H]1[C@@H](O)C[C@H](C)[C@H]1O[C@@]2(CCCCO2)CC[C@H]1C [ocadaic acid]
pIC50 (PP2A phosphatase; PP2A 0.003 units, P1°*-TAMRA peptide 10 nM, 30° C., read-out: IC50 (half-maximal inhibitory concentration, PP2A-dependent dephosphorylation of TAMRA-P1°* peptide)): 9.52

TAMRA-A-R-K-p(S10)-T-T-G-ac(K14)-A-P [peptide #11]
Binding of the ac(K9)-p(S10)-specific antibody to the peptide [2]: only low binding
Binding of the p(S10)-ac(K14)-specific antibody to the peptide [3]: binding

5-TAMRA-AEEA-Lys-Phe-Met-Met-pThr-Pro-pTyr-Val-Val-Thr-Arg-NH2 (chain 1 KFMM; chain 2 YVVTR; not fully specified; 5-TAMRA-AEEA, pThr-Pro, phospho, C-terminal amide; printed: Lys-Phe-Met-Met-; printed: Tyr-Val-Val-Thr-Arg-) [P1*°-TAMRA]
pKd ([1]; different antibody concentrations, read-out: Affinity of polyclonal anti-active-JNK antibody for peptide (KD)): 8.59

C=C1C(=O)N[C@H](C)C(=O)N[C@@H](CC(C)C)C(=O)N[C@@H](C(=O)O)[C@H](C)C(=O)N[C@@H](CCCNC(=N)N)C(=O)N[C@@H](/C=C/C(C)=C/[C@H](C)[C@H](Cc2ccccc2)OC)[C@H](C)C(=O)N[C@@H](C(=O)O)CCC(=O)N1C [microcystin-LR] (R[Adda][d(γGlu)][NMeDha][dA]L[dAsp(3S-Me)]-OH; lactam N-7)
Inhibition of PP2A (PP2A phosphatase): full inhibition

H-Lys-Phe-Met-Met-pThr-Pro-Tyr-Val-Val-Thr-Arg-NH2 (chain 1 H-KFMM; chain 2 [pT]PYVVTR-NH2; not fully specified (C-terminus); also: chains 1 and 2 are one peptide continuing through pThr) [P1*, monophosphorylated control peptide]
Competition with TAMRA-labelled peptide P1*° for binding to the antibody [4]: did note compete effectively

H-Lys-Phe-Met-Met-Thr-Pro-pTyr-Val-Val-Thr-Arg-NH2 (chain 1 H-KFMMTP; chain 2 [pY]VVTR-NH2; not fully specified (C-terminus); also: chains 1 and 2 are one peptide continuing through pTyr) [P1°, monophosphorylated control peptide]
Competition with TAMRA-labelled peptide P1*° for binding to the antibody [4]: did note compete effectively

H-KFMM[pT]P[pY]VVTR-NH2 [P1*°]
Competition with TAMRA-labelled peptide P1*° for binding to the antibody [4]: able to compete effectively
pIC50 ([4]; read-out: IC50 (competition of antibody binding to TAMRA-labelled peptide P1*°)): 8.30
